The values below come from the supplement of paper PMC10307832.

Assay in all cases: relative viability (nuclei count vs DMSO), 5 days (fraction); higher = more cells survive
Compound in the experiment “Zosuquidar + Lapatinib”: O[C@@H](COc1cccc2ncccc12)CN1CCN([C@@H]2c3ccccc3[C@@H]3[C@H](c4ccccc42)C3(F)F)CC1 [Zosuquidar] + CS(=O)(=O)CCNCc1ccc(-c2ccc3ncnc(Nc4ccc(OCc5cccc(F)c5)c(Cl)c4)c3c2)o1 [Lapatinib] (partner 2 µM)
The method in brief:
(§1)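 Relative viability was taken as the ratio of nuclei in treated wells to nuclei in vehicle wells. Lung cancer cell lines in 1536-well plates received compounds by pin tool one day after seeding, either one drug alone or a fixed anchor-drug dose plus five library-drug doses (not always all listed) in √10 steps. Nuclei were counted on 4× images after 5 days of treatment, and values are medians of duplicate plates.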

Compound in the experiment “Zosuquidar + Crizotinib”: O[C@@H](COc1cccc2ncccc12)CN1CCN([C@@H]2c3ccccc3[C@@H]3[C@H](c4ccccc42)C3(F)F)CC1 [Zosuquidar] + C[C@@H](Oc1cc(-c2cnn(C3CCNCC3)c2)cnc1N)c1c(Cl)ccc(F)c1Cl [Crizotinib] (partner 1 µM)
The method in brief:
as §1

Compound in experiment [1]: COc1cc2nccc(Oc3ccc(NC(=O)C4(C(=O)Nc5ccc(F)cc5)CC4)cc3)c2cc1OC [Cabozantinib] + N=C(N)NC(=N)NCCc1ccccc1 [Phenformin] (partner 250 µM)
In a few lines: as §1

Compound in the experiment “Kobe2602 + Foretinib”: C1=CC(=CC=C1NC(=S)NNC2=C(C=C(C=C2[N+](=O)[O-])C(F)(F)F)[N+](=O)[O-])F [Kobe2602] + COc1cc2c(Oc3ccc(NC(=O)C4(C(=O)Nc5ccc(F)cc5)CC4)cc3F)ccnc2cc1OCCCN1CCOCC1 [Foretinib] (partner 0.25 µM)
The method in brief: as §1

As to UMC-11, the relative viability in the experiment with Zosuquidar + Lapatinib (first compound 0.01 µM) is 0.895; in the experiment with Zosuquidar + Lapatinib (first compound 0.03162 µM), 1.07; with Zosuquidar + Lapatinib (first compound 0.1 µM) it was 0.89; with Zosuquidar + Lapatinib (first compound 0.3162 µM), 1.14; in the experiment with Zosuquidar + Lapatinib (first compound 1 µM), 0.96; in the experiment with Zosuquidar + Crizotinib (first compound 0.01 µM) it was 0.494. The relative viability with Zosuquidar + Crizotinib (first compound 0.03162 µM) came to 0.619; with Zosuquidar + Crizotinib (first compound 0.1 µM) it was 0.578; in the experiment with Zosuquidar + Crizotinib (first compound 0.3162 µM) it was 0.622; with Zosuquidar + Crizotinib (first compound 1 µM), 0.564; in experiment [1] (first compound 0.02 µM) it was 0.309; in experiment [1] (first compound 0.06325 µM), 0.35. Further, the relative viability came out at 0.335 in experiment [1] (first compound 0.2 µM); 0.32 in experiment [1] (first compound 0.6325 µM); 0.331 in experiment [1] (first compound 2 µM); 1.03 in the experiment with Kobe2602 + Foretinib (first compound 0.2 µM); 0.957 with Kobe2602 + Foretinib (first compound 0.6325 µM); 0.96 with Kobe2602 + Foretinib (first compound 2 µM). Also, the figures for the relative viability with Kobe2602 + Foretinib (first compound 6.325 µM) and in the experiment with Kobe2602 + Foretinib (first compound 20 µM) were 0.953 and 1.08, respectively.
